ChEMBL document CHEMBL1201862, “PubChem BioAssay data set” (2004)
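Values below derive from 48-hour exposures of cells grown in 96-well plates, with endpoints linearly interpolated between the two concentrations bracketing the appropriate inhibition level. At the GI50, growth is halved.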 Activity calls are given as the source filed them. Rule as the data show it: active = GI50 up to about 1.1 µM and inactive = higher.

Experiments:
Test in all cases: NCI-60 cell line screen, 48 h
EKVX = test system: EKVX
KM12 = test system: KM12
786-0 = test system: 786-0
SW-620 = test system: SW-620
KM-20L2 = test system: KM-20L2
MOLT-4 = test system: MOLT-4
DMS-114 = test system: DMS-114
U-251 = test system: U-251
IGROV-1 = test system: IGROV-1
HOP-62 = test system: HOP-62
M14 = test system: M14
OVCAR-8 = test system: OVCAR-8
HT-29 = test system: HT-29
COLO 205 = test system: COLO 205
DLD-1 = test system: DLD-1
HCC 2998 = test system: HCC 2998
HCT-116 = test system: HCT-116
SK-MEL-5 = test system: SK-MEL-5
SF-268 = test system: SF-268
Malme-3M = test system: Malme-3M
HCT-15 = test system: HCT-15
OVCAR-3 = test system: OVCAR-3
HOP-92 = test system: HOP-92
SN12C = test system: SN12C
ACHN = test system: ACHN
NCI-H522 = test system: NCI-H522
TK-10 = test system: TK-10
K562 = test system: K562
LOX IMVI = test system: LOX IMVI
NCI-H23 = test system: NCI-H23
SNB-19 = test system: SNB-19
SF-295 = test system: SF-295
SK-OV-3 = test system: SK-OV-3
UACC-257 = test system: UACC-257
XF498 = test system: XF498
M19-MEL = test system: M19-MEL
UO-31 = test system: UO-31
SK-MEL-28 = test system: SK-MEL-28
OVCAR-5 = test system: OVCAR-5
NCI-H460 = test system: NCI-H460
HOP-18 = test system: HOP-18
SNB-75 = test system: SNB-75
SF-539 = test system: SF-539
LXFL 529 = test system: LXFL 529
DMS-273 = test system: DMS-273
RXF 393 = test system: RXF 393
A549 = test system: A549
A498 = test system: A498
CCRF-CEM = test system: CCRF-CEM
UACC-62 = test system: UACC-62
SNB-78 = test system: SNB-78
NCI-H226 = test system: NCI-H226
SK-MEL-2 = test system: SK-MEL-2
OVCAR-4 = test system: OVCAR-4
RPMI-8226 = test system: RPMI-8226
CAKI-1 = test system: CAKI-1
HL-60 = test system: HL-60

Measured: GI50

COc1ccc2c(c1)[n+]([O-])c(C(=O)C/C(=N/NC(=O)c1ccccc1O)C(=O)Nc1ccc(Cl)c(C(F)(F)F)c1)c(C)[n+]2[O-]
43.7 µM: HCT-15
inactive: EKVX 48.9 µM | KM12 89.1 µM | 786-0 54.5 µM | SW-620 62.1 µM | KM-20L2 > 100 µM | MOLT-4 37.3 µM | DMS-114 71.8 µM | U-251 > 100 µM | IGROV-1 44 µM | HOP-62 37.8 µM | M14 51.4 µM | OVCAR-8 43.8 µM | HT-29 > 100 µM | COLO 205 71 µM | DLD-1 37.4 µM | HCC 2998 32.7 µM | HCT-116 48.2 µM | SK-MEL-5 45.8 µM | SF-268 54.8 µM | Malme-3M 49.7 µM | OVCAR-3 28.9 µM | HOP-92 > 100 µM | SN12C 47.2 µM | ACHN 68.9 µM | NCI-H522 39.6 µM | TK-10 50.5 µM | K562 64.4 µM | LOX IMVI 79.8 µM | NCI-H23 47.5 µM | SNB-19 > 100 µM | SF-295 72.3 µM | SK-OV-3 > 100 µM | UACC-257 91.6 µM | XF498 > 100 µM | M19-MEL 52.2 µM | UO-31 20.7 µM | SK-MEL-28 > 100 µM | OVCAR-5 45.4 µM | NCI-H460 46.5 µM | HOP-18 32.6 µM | SNB-75 66.5 µM | SF-539 > 100 µM | LXFL 529 51.4 µM | DMS-273 49.9 µM | RXF 393 > 100 µM | A549 > 100 µM | A498 53.8 µM | CCRF-CEM 36.4 µM | UACC-62 > 100 µM | SNB-78 > 100 µM | NCI-H226 > 100 µM | SK-MEL-2 > 100 µM | OVCAR-4 87.9 µM

CC1=Nn2c(nnc2-c2ccc(Cl)cc2)NC(C)(C)C1
inactive: EKVX > 100 µM | KM12 > 100 µM | 786-0 > 100 µM | SW-620 > 100 µM | KM-20L2 > 100 µM | MOLT-4 > 100 µM | DMS-114 > 100 µM | U-251 > 100 µM | IGROV-1 > 100 µM | HOP-62 > 100 µM | M14 > 100 µM | RPMI-8226 > 100 µM | HT-29 > 100 µM | COLO 205 > 100 µM | DLD-1 > 100 µM | HCC 2998 > 100 µM | SK-MEL-5 > 100 µM | SF-268 > 100 µM | Malme-3M > 100 µM | OVCAR-3 > 100 µM | HOP-92 > 100 µM | ACHN > 100 µM | NCI-H522 > 100 µM | TK-10 > 100 µM | K562 > 100 µM | LOX IMVI > 100 µM | NCI-H23 > 100 µM | SNB-19 > 100 µM | SF-295 > 100 µM | SK-OV-3 > 100 µM | UACC-257 > 100 µM | XF498 > 100 µM | M19-MEL > 100 µM | UO-31 > 100 µM | CAKI-1 > 100 µM | SK-MEL-28 > 100 µM | OVCAR-5 > 100 µM | NCI-H460 > 100 µM | HOP-18 > 100 µM | SF-539 > 100 µM | LXFL 529 > 100 µM | DMS-273 > 100 µM | A549 > 100 µM | A498 > 100 µM | HL-60 > 100 µM | CCRF-CEM > 100 µM | UACC-62 > 100 µM | SNB-78 > 100 µM | NCI-H226 > 100 µM | SK-MEL-2 > 100 µM | OVCAR-4 > 100 µM
> 100 µM: HCT-15
